From patent US7615564B2, “Isoquinoline derivatives having kinasae inhibitory activity and drugs containing the same” (Kirin Beer Kabushiki Kaisha, priority 2002, dated 2009)

Tests used:
[1] = biological target: T1, Recombinant Rho kinase (fused protein composed of bovine Rho kinase catalytic region and glutathione S-transferase) (Bos taurus, UniProt Q28021); test: Rho kinase inhibitory activity (phosphorylation of S6 231-239 substrate with γ32P-ATP); format: biochemical; settings: concentration inhibiting substrate phosphorylation by 50%
T1 construct: fused protein composed of bovine Rho kinase catalytic region and glutathione S-transferase; glutathione S-transferase (GST); made in house; host or cells: insect cells infected with baculovirus
T1 sequence (Q28021 92-354 limits assumed): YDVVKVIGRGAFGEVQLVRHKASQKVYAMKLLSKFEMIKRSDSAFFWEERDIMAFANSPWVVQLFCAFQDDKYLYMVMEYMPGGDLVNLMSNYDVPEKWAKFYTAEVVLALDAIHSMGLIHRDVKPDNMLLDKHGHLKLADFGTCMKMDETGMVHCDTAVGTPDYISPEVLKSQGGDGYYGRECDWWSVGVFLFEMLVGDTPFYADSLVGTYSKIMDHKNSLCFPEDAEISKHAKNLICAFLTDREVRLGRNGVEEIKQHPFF
Experimental: This permits the substrate to be labeled with the radioisotope.
Thereafter, the substrate was adsorbed to a filter paper. ATP was washed away with a phosphoric acid solution, and the amount of the phosphorylated substrate was then measured with a liquid scintillation counter.

[2] = tested on: Mouse-derived CCR2 overexpressing human-derived histiocyte lymphoma (U937/CCR2); test: Leukocyte migration inhibitory activity (MCP-1 induced migration, CHEMOTAXICELL); format: cell-based; settings: U-937, test compound concentration 10 μg/ml, MCP-1 ligand, migration 1 hr
Experimental: Mouse-derived CCR2 overexpressing human-derived histiocyte lymphoma (U937/CCR2), was suspended in a 0.1% BSA-containing RPMI 1640 medium, to which a test compound had been added (5×10^6/ml), and the suspension was incubated for 20 min. A chemical solution (500 μl) (0.1% BSA-containing RPMI 1640 medium DMSO 1%), to which an MCP-1 ligand (1 μM) and the test compound had been added, was added to a 24-well plate. CHEMOTAXICELL was put thereon, and 200 μl of the cell suspension was added to the top layer, followed by migration under a 5% CO2 atmosphere at 37° C. for one hr. The number of cells, which had migrated to the lower chamber, was counted with a particle count analyzer (CDA-500, SYSMEX CORPORATION), and the percentage migration inhibition was calculated by the following equation: Migration inhibition (%)=(1−number of migrated cells in the presence of test compound/number of migrated cells in the absence of test compound)×100

Structure (SMILES)	IC50 [1]	inhibition at 10 µg/mL [2]
Nc1ccccc1CN1CCCC(Nc2cccc3cnccc23)C1 (centres unmarked) [Example 35, N5-[1-(2-Aminobenzyl)-3-piperidyl]-5-isoquinolylamine]	270 nM	
c1csc(CN2CCCC(Nc3cccc4cnccc34)C2)c1 (centres unmarked) [Example 41, N-(5-Isoquinolinyl)-N-[1-(2-thienylmethyl)-3-piperidyl]amine]	190 nM	
c1cncc(CN2CCCC(Nc3cccc4cnccc34)C2)c1 (centres unmarked) [Example 33, N-(5-Isoquinolinyl)-N-[1-(3-pyridylmethyl)-3-piperidyl]amine]	1000 nM	
O=[N+]([O-])c1cccc(CN2CCCC(Nc3cccc4cnccc34)C2)c1 (centres unmarked) [Example 29, N-(5-Isoquinolinyl)-N-[1-(3-nitrobenzyl)-3-piperidyl]amine]	1900 nM	
O=[N+]([O-])c1ccccc1CN1CCCC(Nc2cccc3cnccc23)C1 (centres unmarked) [Example 28, N-(5-Isoquinolinyl)-N-[1-(2-nitrobenzyl)-3-piperidyl]amine]	580 nM	
c1cc(NC2CCCN(Cc3cc[nH]c3)C2)c2ccncc2c1 (centres unmarked) [Example 40, N-(5-Isoquinolinyl)-N-[1-(1H-3-pyrrolylmethyl)-3-piperidyl]amine]	670 nM	
c1cc(NC2CCCN(Cc3ccoc3)C2)c2ccncc2c1 (centres unmarked) [Example 44, N-[1-(3-Furylmethyl)-3-piperidyl]-N-(5-isoquinolyl)amine]	110 nM	
O=[N+]([O-])c1cc(Cl)ccc1CN1CCCC(Nc2cccc3cnccc23)C1 (centres unmarked) [Example 31, N5-[1-(4-Chloro-2-nitrobenzyl)-3-piperidyl]-5-isoquinolylamine]	2300 nM	
Clc1ccccc1CN1CCCC(Nc2cccc3cnccc23)C1 (centres unmarked) [Example 20, N5-[1-(2-Chlorobenzyl)-3-piperidyl]-5-isoquinolylamine]	210 nM	69%
O=[N+]([O-])c1ccccc1CN1CCC(Nc2cccc3cnccc23)C1 (centres unmarked) [Example 9, N-(5-Isoquinolyl)-N-[1-(2-nitrobenzyl)tetrahydro-1H-3-pyrrolyl]amine]	570 nM	
c1ccc(CN2CCCC(Nc3cccc4cnccc34)C2)cc1 (centres unmarked) [Example 23, N-(1-Benzyl-3-piperidyl)-5-isoquinolylamine]	240 nM	
c1coc(CN2CCCC(Nc3cccc4cnccc34)C2)c1 (centres unmarked) [Example 43, N-[1-(2-Furylmethyl)-3-piperidyl]-N-(5-isoquinolyl)amine]	200 nM	
Nc1cc(Cl)ccc1CN1CCCC(Nc2cccc3cnccc23)C1 (centres unmarked) [Example 38, N5-[1-(2-Amino-4-chlorobenzyl)-3-piperidyl]-5-isoquinolylamine]	400 nM	
c1ccc(CN2CCCC(Nc3cccc4cnccc34)C2)nc1 (centres unmarked) [Example 32, N-(5-Isoquinolinyl)-N-[1-(2-pyridylmethyl)-3-piperidyl]amine]	1300 nM	
c1cc(NC2CCCN(Cc3ccncc3)C2)c2ccncc2c1 (centres unmarked) [Example 34, N-(5-Isoquinolinyl)-N-[1-(4-pyridylmethyl)-3-piperidyl]amine]	1500 nM	
Fc1cccc(F)c1CN1CCC(Nc2cccc3cnccc23)C1 (centres unmarked) [Example 5, N5-[1-(2,6-Difluorobenzyl)tetrahydro-1H-3-pyrrolyl]-5-isoquinolylamine]	73 nM	93%
Clc1cccc(Cl)c1CN1CCCC(Nc2cccc3cnccc23)C1 (centres unmarked) [Example 25, N5-[1-(2,6-Dichlorobenzyl)-3-piperidyl]-5-isoquinolylamine]	1200 nM	
c1cc(NC2CCCN(Cc3ccsc3)C2)c2ccncc2c1 (centres unmarked) [Example 42, N-(5-Isoquinolinyl)-N-[1-(3-thienylmethyl)-3-piperidyl]amine]	31 nM	
c1ccc(CN2CCC(Nc3cccc4cnccc34)C2)nc1 (centres unmarked) [Example 13, N-(5-Isoquinolyl)-N-[1-(2-pyridylmethyl)tetrahydro-1H-3-pyrrolyl]amine]	480 nM	
c1c[nH]c(CN2CCCC(Nc3cccc4cnccc34)C2)c1 (centres unmarked) [Example 39, N-(5-Isoquinolinyl)-N-[1-(1H-2-pyrrolylmethyl)-3-piperidyl]amine]	23 nM	
O=[N+]([O-])c1cc(Cl)ccc1CN1CCC(Nc2cccc3cnccc23)C1 (centres unmarked) [Example 12, N5-[1-(4-Chloro-2-nitrobenzyl)tetrahydro-1H-3-pyrrolyl]-5-isoquinolylamine]	1300 nM	
Clc1cccc(Cl)c1CN1CCC(Nc2cccc3cnccc23)C1 (centres unmarked) [Example 6, N5-[1-(2,6-Dichlorobenzyl)tetrahydro-1H-3-pyrrolyl]-5-isoquinolylamine]	140 nM	
Fc1cccc(F)c1CN1CCCC(Nc2cccc3cnccc23)C1 (centres unmarked) [Example 24, N5-[1-(2,6-Difluorobenzyl)-3-piperidyl]-5-isoquinolylamine]	230 nM	
Clc1ccc(CN2CCCC(Nc3cccc4cnccc34)C2)cc1 (centres unmarked) [Example 22, N5-[1-(4-Chlorobenzyl)-3-piperidyl]-5-isoquinolylamine]		80%

More lines, main results first:

IC50 [1]	Structure (SMILES)	inhibition at 10 µg/mL [2]
1800 nM	O=[N+]([O-])c1ccc(CN2CCCC(Nc3cccc4cnccc34)C2)cc1 (centres unmarked) [Example 30, N-(5-Isoquinolinyl)-N-[1-(4-nitrobenzyl)-3-piperidyl]amine]	
310 nM	Nc1cccc(CN2CCCC(Nc3cccc4cnccc34)C2)c1 (centres unmarked) [Example 36, N5-[1-(3-Aminobenzyl)-3-piperidyl]-5-isoquinolylamine]	
290 nM	Nc1ccc(CN2CCCC(Nc3cccc4cnccc34)C2)cc1 (centres unmarked) [Example 37, N5-[1-(4-Aminobenzyl)-3-piperidyl]-5-isoquinolylamine]	
96 nM	Cc1ccc(CN2CCC(Nc3cccc4cnccc34)C2)cc1 (centres unmarked) [Example 7, N-(5-Isoquinolyl)-N-[1-(4-methylbenzyl)tetrahydro-1H-3-pyrrolyl]amine]	103%
200 nM	CC(C)c1ccc(CN2CCC(Nc3cccc4cnccc34)C2)cc1 (centres unmarked) [Example 8, N5-[1-(4-Isopropylbenzyl)tetrahydro-1H-3-pyrrolyl]-5-isoquinolylamine]	
660 nM	O=[N+]([O-])c1ccc(CN2CCC(Nc3cccc4cnccc34)C2)cc1 (centres unmarked) [Example 11, N-(5-Isoquinolyl)-N-[1-(4-nitrobenzyl)tetrahydro-1H-3-pyrrolyl]amine]	
270 nM	Clc1cccc(CN2CCCC(Nc3cccc4cnccc34)C2)c1 (centres unmarked) [Example 21, N5-[1-(3-Chlorobenzyl)-3-piperidyl]-5-isoquinolylamine]	97%
180 nM	Cc1ccc(CN2CCCC(Nc3cccc4cnccc34)C2)cc1 (centres unmarked) [Example 26, N-(5-Isoquinolinyl)-N-[1-(4-methylbenzyl)-3-piperidyl]amine]	
93 nM	Fc1ccc(CN2CCC(Nc3cccc4cnccc34)C2)cc1 (centres unmarked) [Example 4, N5-[1-(4-Fluorobenzyl)tetrahydro-1H-3-pyrrolyl]-5-isoquinolylamine]	98%
99 nM	Clc1ccccc1CN1CCC(Nc2cccc3cnccc23)C1 (centres unmarked) [Example 1, N5-[1-(2-Chlorobenzyl)tetrahydro-1H-3-pyrrolyl]-5-isoquinolylamine]	86%
63 nM	Clc1cccc(CN2CCC(Nc3cccc4cnccc34)C2)c1 (centres unmarked) [Example 2, N5-[1-(3-Chlorobenzyl)tetrahydro-1H-3-pyrrolyl]-5-isoquinolylamine]	90%
66 nM	Clc1ccc(CN2CCC(Nc3cccc4cnccc34)C2)cc1 (centres unmarked) [Example 3, N5-[1-(4-Chlorobenzyl)tetrahydro-1H-3-pyrrolyl]-5-isoquinolylamine]	101%
240 nM	Nc1cc(Cl)ccc1CN1CCC(Nc2cccc3cnccc23)C1 (centres unmarked) [Example 19, N5-[1-(2-Amino-4-chlorobenzyl)tetrahydro-1H-3-pyrrolyl]-5-isoquinolylamine]	82%
590 nM	c1cncc(CN2CCC(Nc3cccc4cnccc34)C2)c1 (centres unmarked) [Example 14, N-(5-Isoquinolyl)-N-[1-(3-pyridylmethyl)tetrahydro-1H-3-pyrrolyl]amine]	
230 nM	Nc1ccc(CN2CCC(Nc3cccc4cnccc34)C2)cc1 (centres unmarked) [Example 18, N5-[1-(4-Aminobenzyl)tetrahydro-1H-3-pyrrolyl]-5-isoquinolylamine]	94%
210 nM	Nc1ccccc1CN1CCC(Nc2cccc3cnccc23)C1 (centres unmarked) [Example 16, N5-[1-(2-Aminobenzyl)tetrahydro-1H-3-pyrrolyl]-5-isoquinolylamine]	99%
200 nM	O=[N+]([O-])c1cccc(CN2CCC(Nc3cccc4cnccc34)C2)c1 (centres unmarked) [Example 10, N-(5-Isoquinolyl)-N-[1-(3-nitrobenzyl)tetrahydro-1H-3-pyrrolyl]amine]	
1100 nM	c1cc(NC2CCN(Cc3ccncc3)C2)c2ccncc2c1 (centres unmarked) [Example 15, N-(5-Isoquinolyl)-N-[1-(4-pyridylmethyl)tetrahydro-1H-3-pyrrolyl]amine]	
